Measured values taken from PubChem BioAssay (NCI).
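Five compound concentrations were applied to cells in 96-well plates for 48 hours; endpoints were derived by simple linear interpolation of the resulting dose-response curve. TGI: total growth inhibition.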

Key:
Test in all cases: NCI tumour cell line growth inhibition, 48 h
U251 CNS = tested on: U251 CNS
SNB-75 CNS = tested on: SNB-75 CNS
OVCAR-3 ovarian = tested on: OVCAR-3 ovarian
UACC-62 melanoma = tested on: UACC-62 melanoma
EKVX NSCLC = tested on: EKVX NSCLC
COLO 205 colon = tested on: COLO 205 colon
SNB-19 CNS = tested on: SNB-19 CNS
BT-549 breast = tested on: BT-549 breast
NCI-H226 lung = tested on: NCI-H226 lung
MDA-MB-231 breast = tested on: MDA-MB-231 breast
RPMI-8226 leukemia = tested on: RPMI-8226 leukemia
HCT-15 colon = tested on: HCT-15 colon
RXF 393 renal = tested on: RXF 393 renal
HT29 colon = tested on: HT29 colon
NCI-H23 lung = tested on: NCI-H23 lung
DU-145 prostate = tested on: DU-145 prostate
IGROV1 ovarian = tested on: IGROV1 ovarian
CAKI-1 renal = tested on: CAKI-1 renal
OVCAR-5 ovarian = tested on: OVCAR-5 ovarian

| SMILES | TGI (U251 CNS) [µM] | TGI (SNB-75 CNS) [µM] | TGI (OVCAR-3 ovarian) [µM] | TGI (UACC-62 melanoma) [µM] | TGI (EKVX NSCLC) [µM] | TGI (COLO 205 colon) [µM] | TGI (SNB-19 CNS) [µM] | TGI (BT-549 breast) [µM] | TGI (NCI-H226 lung) [µM] | TGI (MDA-MB-231 breast) [µM] | TGI (RPMI-8226 leukemia) [µM] | TGI (HCT-15 colon) [µM] | TGI (RXF 393 renal) [µM] | TGI (HT29 colon) [µM] | TGI (NCI-H23 lung) [µM] | TGI (DU-145 prostate) [µM] | TGI (IGROV1 ovarian) [µM] | TGI (CAKI-1 renal) [µM] | TGI (OVCAR-5 ovarian) [µM] |
| --- | --- | --- | --- | --- | --- | --- | --- | --- | --- | --- | --- | --- | --- | --- | --- | --- | --- | --- | --- |
| O=C1c2ccccc2S(=O)(=O)c2c1cccc2[N+](=O)[O-] | > 8.28 | > 9.55 | 2.51 | 3.48 | > 8.6 | 2.77 | > 10 | > 8.34 | > 10 | 5.36 | 5.94 | 2.95 | 8.44 | > 7.01 | > 8.17 | > 10 | 5.08 | 9.83 | > 10 |
| O=C(/C=C/c1csc(-c2ccccc2)n1)NCc1ccc(C(=O)NCCc2ccccc2)cc1 | > 100 | 8.31 | > 100 | > 100 | > 100 | > 100 | 49.1 | > 100 | 90.2 | 55.6 | > 100 | > 100 | 23.4 | 30.4 | > 100 | > 100 | > 100 | 50.3 | > 100 |
| O=C(/C=C/c1ccccc1)CCN1CCN(CCC(=O)/C=C/c2ccccc2)CC1 | 30.3 | 29.7 | 30.7 | 30.2 | 35.2 | 31.1 | 32.6 | 28.4 | 64.4 | 17 | > 100 | 23 | 28.8 | 30.4 | 31.2 | 31.5 | 33.1 | 31.9 | 30.5 |
| CCOC(=O)C1=[N+]([O-])OC2=C(O)CCCC21 (centres undefined) | > 100 | > 100 | > 100 | > 100 | > 100 | > 100 | > 100 | > 100 | > 100 | > 100 | > 100 | > 100 | > 100 | > 100 | > 100 | > 100 | > 100 | > 100 | > 100 |
| O=CC(=C(I)I)c1ccccc1 | 14.5 | 9.97 | 3.69 | 17.5 | 36.9 | 6.79 | 21.1 | 14.1 | 32 | 5.57 | 2.62 | 5.01 | 3.58 | > 32.5 | 4.97 | 19.5 | 11.2 | 7.83 | 15.1 |
| CSc1ncc2c(C#N)c3sc4ccccc4n3c(=O)c2n1 | > 100 | > 100 | > 100 | > 100 | > 100 | > 100 | > 100 | > 100 | > 100 | > 100 | > 100 | > 100 | > 100 | > 100 | > 100 | > 100 | > 100 | > 100 | > 100 |
